We go through 45 compounds from patent publication US11873291B2, “Quinoline cGAS antagonist compounds” (ImmuneSensor Therapeutics, Inc., priority 2020, dated 2024).

Usually IC50 stands for the midpoint of a concentration-inhibition curve.

Some results are limits rather than exact numbers.

T1 sequence (Q8N884 147-522): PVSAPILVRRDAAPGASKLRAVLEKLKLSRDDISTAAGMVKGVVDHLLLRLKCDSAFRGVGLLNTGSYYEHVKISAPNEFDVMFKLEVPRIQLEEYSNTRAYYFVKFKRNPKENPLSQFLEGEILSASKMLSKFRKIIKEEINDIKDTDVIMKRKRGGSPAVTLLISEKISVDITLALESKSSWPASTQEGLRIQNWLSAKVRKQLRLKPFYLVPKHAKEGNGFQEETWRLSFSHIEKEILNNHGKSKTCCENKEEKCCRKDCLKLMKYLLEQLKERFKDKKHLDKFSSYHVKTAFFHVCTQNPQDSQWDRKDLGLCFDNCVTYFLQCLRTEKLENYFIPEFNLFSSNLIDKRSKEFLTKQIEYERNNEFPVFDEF

One experiment addresses T1, recombinant human cGAS (aa147-522) (Homo sapiens, UniProt Q8N884).
T1 construct: recombinant human cGAS (aa147-522); His6-SUMO (cleaved yes); made in house; host or cells: E. coli BL21/pLys
Nature of the experiment: In vitro inhibition assay of cGAS activity (ATP consumption, KinaseGlo Max). It counts as biochemical. Particulars: Table 2, read-out: cGAS Inhibition Results IC50. The procedure, abridged:
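De-tagged recombinant human cGAS (aa147-522, 1.5 μg/mL) was incubated 20 min at 37 °C with herring testis DNA, 6.6 μM ATP and 0.1 mM GTP in Tris pH 7.5/MgCl2 buffer plus serial compound dilutions. Remaining ATP was read by KinaseGlo Max luminescence, and IC50 was fitted from % ATP consumption versus log concentration.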
Background: Kinase-Glo reads ATP consumption through a luciferase reaction.
`CC(=O)N1CCOC(CNc2cc(-c3cn[nH]c3)c3ccc(Cl)c(Cl)c3n2)C1` (stereo not drawn) [I-221, 1-(2-(((7,8-dichloro-4-(1H-pyrazol-4-yl)quinolin-2-yl)amino)methyl)morpholino)ethan-1-one]: the IC50 was below 2000 nM.

In the case of `O=C(O)[C@H]1CCN1c1cc(-c2cn[nH]c2)c2ccc(Cl)c(Cl)c2n1` [I-359], the IC50 fell in the range of 2000 to 30000 nM.

Take `COC[C@@H]1CCCN1c1cc(-n2ccnc2)c2ccc(Cl)c(Cl)c2n1` [I-147]: the IC50 is below 2000 nM.

Take `CN(CC(=O)O)c1cc(-n2ccnc2)c2ccc(Cl)cc2n1` [I-167]: the IC50 was below 2000 nM.

With `CS(=O)(=O)N(CCCc1cc(-c2cn[nH]c2)c2ccc(Cl)c(Cl)c2n1)CC(=O)O` [I-337, N-(3-(7,8-dichloro-4-(1H-pyrazol-4-yl)quinolin-2-yl)propyl)-N-(methylsulfonyl) glycine], the IC50 is below 2000 nM.

Consider `CC(O)CN(C)c1cc(-n2ccnc2)c2ccc(Cl)c(Cl)c2n1` (stereo not drawn) [I-243], for which the concentration for half-maximal inhibition (IC50) was below 2000 nM.

As for `O=C(O)c1cc(-c2cc(-n3ccnc3)c3ccc(Cl)cc3n2)c[nH]1` [I-56, 4-(7-chloro-4-(1H-imidazol-1-yl)quinolin-2-yl)-1H-pyrrole-2-carboxylic acid], the IC50 was in the range of 2000 to 30000 nM.

Consider `Brc1ccc2nccc(-n3ccnc3)c2c1` [I-409], for which the IC50 was above 30000 nM.

In the case of `O=C(O)CNCCCc1cc(-c2cn[nH]c2)c2ccc(Cl)c(Cl)c2n1` [I-336, (3-(7,8-dichloro-4-(1H-pyrazol-4-yl)quinolin-2-yl)propyl)glycine], the IC50 lay within 2000 to 30000 nM.

On to `CN(CCC(=O)NCCO)c1cc(-c2cn[nH]c2)c2ccc(Cl)c(Cl)c2n1` [I-194], for which the IC50 is below 2000 nM.

In the case of `Brc1ccc2nccc(-n3cccn3)c2c1` [I-415], the IC50 is above 30000 nM.

As for `C[C@@H](Nc1cc(-c2cn[nH]c2)nc2c(Cl)c(Cl)ccc12)C(=O)OC(C)(C)C` [I-290], the IC50 was in the range of 2000 to 30000 nM.

Regarding `O=C1CN(c2cc(-c3cn[nH]c3)nc3c(Cl)c(Cl)ccc23)CCN1` [I-299], the IC50 is above 30000 nM.

As for `C[C@@H](Nc1cc(-c2cn[nH]c2)c2ccc(Cl)c(Cl)c2n1)C(=O)O` [I-180], the IC50 was in the range of 2000 to 30000 nM.

Consider `NS(=O)(=O)OCC1CCCN(c2cc(-n3ccnc3)c3ccc(Cl)c(Cl)c3n2)C1` (stereo not drawn) [I-118], for which the IC50 is below 2000 nM.

As for `O=C(O)CNC(=O)[C@H]1CN(c2cc(-c3cn[nH]c3)c3ccc(Cl)c(Cl)c3n2)CCO1` [I-343], the IC50 was in the range of 2000 to 30000 nM.

`Cc1ccc(-c2cc(-n3ccnc3)c3ccc(Br)cc3n2)cc1` [I-385]: the IC50 was 2000 to 30000 nM.

For the compound `CS(=O)(=O)CCC(Nc1cc(-n2ccnc2)c2ccc(Cl)c(Cl)c2n1)C(=O)O` (stereo not drawn) [I-170, 2-((7,8-Dichloro-4-(1H-imidazol-1-yl)quinolin-2-yl)amino)-4-(methylsulfonyl)butanoic acid], the IC50 is below 2000 nM.

Take `COc1ccc2c(-c3cn[nH]c3)cc(NCCO)nc2c1` [I-377]: the IC50 was above 30000 nM.

Take `Oc1ccc(-c2cc(-n3ccnc3)c3ccc(Cl)c(Cl)c3n2)cc1` [I-47]: the IC50 is below 2000 nM.

On to `O=C(O)c1ccccc1S(=O)(=O)NC[C@@H]1CCCN1c1cc(-n2ccnc2)c2ccc(Cl)c(Cl)c2n1` [I-391], for which the IC50 is below 2000 nM.

In the case of `OC1(CNc2cc(-n3ccnc3)c3ccc(Cl)c(Cl)c3n2)CC1` [I-245], the IC50 was below 2000 nM.

Turning to `Cc1ncn(-c2cc(-c3ccccc3)nc3cc(Cl)ccc23)c1C` [I-61], the IC50 was above 30000 nM.

`CN(CCNS(=O)(=O)c1ccccc1C(F)(F)F)c1cc(-n2ccnc2)c2ccc(Cl)cc2n1` [I-228]: the IC50 is above 30000 nM.

Consider `O=C(O)C1CCC=C(c2cc(-c3cn[nH]c3)c3ccc(Cl)c(Cl)c3n2)C1` (stereo not drawn) [I-273, 3-(7,8-dichloro-4-(1H-pyrazol-4-yl)quinolin-2-yl)cyclohex-3-ene-1-carboxylic acid], for which the IC50 lay within 2000 to 30000 nM.

The experiment is the same for the next values; noted with them: Table 3, read-out: cGAS Inhibition Results IC50.
For `O=C(O)[C@@H]1C[C@@H]2CCC[C@@H]2N1c1cc(-n2ccnc2)c2ccc(Cl)c(Cl)c2n1` [I-515], the IC50 was below 2000 nM.

Regarding `Clc1ccc2c(-n3ccnc3)cc(N3CCC(c4nn[nH]n4)C3)nc2c1Cl` (stereo not drawn) [I-464], the IC50 was below 2000 nM.

`O=C(O)CCOC[C@H]1CCCCN1c1cc(-n2ccnc2)c2ccc(Cl)c(Cl)c2n1` [I-790]: the IC50 lay in the range of 2000 to 30000 nM.

With `CN(CCNS(=O)(=O)CC(=O)O)c1cc(-n2ccnc2)c2ccc(Cl)c(Cl)c2n1` [I-618], the IC50 is below 2000 nM.

As to `CN(CCS(=O)(=O)N1CCCC1C(=O)O)c1cc(-n2ccnc2)c2ccc(Cl)c(Cl)c2n1` (stereo not drawn) [I-626], the IC50 was below 2000 nM.

For `O=C(O)[C@@H]1C[C@@H](O)CN1c1cc(-n2ccnc2)c2ccc(Cl)c(Cl)c2n1` [I-514], the IC50 is below 2000 nM.

Turning to `O=C(O)CNC(=O)O[C@H]1C[C@@H](C(=O)O)N(c2cc(-n3ccnc3)c3ccc(Cl)c(Cl)c3c2)C1` [I-570, (2S,4S)-4-(((carboxymethyl)carbamoyl)oxy)-1-(7,8-dichloro-4-(1H-imidazol-1-yl)naphthalen-2-yl)pyrrolidine-2-carboxylic acid], the IC50 fell in the range of 2000 to 30000 nM.

As for `COC(=O)CNC(=O)O[C@@H]1CCN(c2cc(-n3ccnc3)c3ccc(Cl)c(Cl)c3n2)[C@@H]1C(=O)OC` [I-653, methyl (2S,3R)-1-(7,8-dichloro-4-(1H-imidazol-1-yl)quinolin-2-yl)-3-(((2-methoxy-2-oxoethyl)carbamoyl)oxy)pyrrolidine-2-carboxylate], the IC50 is below 2000 nM.

In the case of `CN(CCN(CC(=O)O)S(C)(=O)=O)c1cc(-n2ccnc2)c2ccc(Cl)c(Cl)c2n1` [I-635, N-(2-((7,8-dichloro-4-(1H-imidazol-1-yl)quinolin-2-yl)(methyl)amino)ethyl)-N-(methylsulfonyl)glycine], the 50% inhibitory concentration (IC50) is below 2000 nM.

As for `O=C(O)c1ccc(C2CCCN2c2cc(-n3ccnc3)c3ccc(Cl)c(Cl)c3n2)s1` (stereo not drawn) [I-468], the IC50 is 2000 to 30000 nM.

Turning to `O=C(O)c1ccn(CC[C@@H]2CCCN2c2cc(-n3ccnc3)c3ccc(Cl)c(Cl)c3n2)n1` [I-731], the IC50 was below 2000 nM.

For the compound `O=C(O)C[C@@H]1CCCN1C(=O)[C@@H]1CCCN1c1cc(-n2ccnc2)c2ccc(Cl)c(Cl)c2n1` [I-553], the IC50 is below 2000 nM.

Turning to `CON(C)C(=O)[C@@H]1CCCN1c1cc(-n2ccnc2)c2ccc(Cl)c(Cl)c2n1` [I-542], the concentration for half-maximal inhibition (IC50) was 2000 to 30000 nM.

Take `O[C@@H]([C@@H]1CCCN1c1cc(-n2ccnc2)c2ccc(Cl)c(Cl)c2n1)C(F)(F)F` [I-654, (S)-1-((S)-1-(7,8-dichloro-4-(1H-imidazol-1-yl)quinolin-2-yl)pyrrolidin-2-yl)-2,2,2-trifluoroethan-1-ol]: the IC50 was below 2000 nM.

Consider `C[C@H](NC(=O)CCN(C)c1cc(-n2ccnc2)c2ccc(Cl)c(Cl)c2n1)C(=O)O` [I-565], for which the IC50 was below 2000 nM.

As for `O=C(O)CCOC[C@@H]1CCCN1c1cc(-c2cc[nH]n2)c2ccc(Cl)c(Cl)c2n1` [I-823], the IC50 is above 30000 nM.

In the case of `O=C(O)c1ccnn1CC[C@@H]1CCCN1c1cc(-n2ccnc2)c2ccc(Cl)c(Cl)c2n1` [I-729], the IC50 was below 2000 nM.

On to `O=C(O)[C@@H]1C[C@H](C(F)(F)F)CN1c1cc(-n2ccnc2)c2ccc(Cl)c(Cl)c2n1` [I-508], for which the IC50 is below 2000 nM.

Turning to `O=C(O)Cc1ccc(OC[C@@H]2CCCN2c2cc(-n3ccnc3)c3ccc(Cl)c(Cl)c3n2)cc1` [I-738], the IC50 is below 2000 nM.

Turning to `O=C(O)CCOCC(COCCC(=O)O)Nc1cc(-n2ccnc2)c2ccc(Cl)c(Cl)c2n1` [I-874], the IC50 is below 2000 nM.
